The values below come from publication PMC12615753, “Glutathione as a taste modulator: molecular mechanisms of interaction with umami and sweet taste receptors” (Food Chemistry: Molecular Sciences, 2025).

One assay has as its target rTAS1R3 (Rattus norvegicus, UniProt Q923K1). The following applies: GSH alone; Fig. 5C.
A further assay deals with T1, hTAS1R2/hTAS1R3 (Homo sapiens, UniProt Q7RTX0+Q8TE23).
T1 construct: expressed in transfected cells
T1 sequence (Q8TE23 20-839): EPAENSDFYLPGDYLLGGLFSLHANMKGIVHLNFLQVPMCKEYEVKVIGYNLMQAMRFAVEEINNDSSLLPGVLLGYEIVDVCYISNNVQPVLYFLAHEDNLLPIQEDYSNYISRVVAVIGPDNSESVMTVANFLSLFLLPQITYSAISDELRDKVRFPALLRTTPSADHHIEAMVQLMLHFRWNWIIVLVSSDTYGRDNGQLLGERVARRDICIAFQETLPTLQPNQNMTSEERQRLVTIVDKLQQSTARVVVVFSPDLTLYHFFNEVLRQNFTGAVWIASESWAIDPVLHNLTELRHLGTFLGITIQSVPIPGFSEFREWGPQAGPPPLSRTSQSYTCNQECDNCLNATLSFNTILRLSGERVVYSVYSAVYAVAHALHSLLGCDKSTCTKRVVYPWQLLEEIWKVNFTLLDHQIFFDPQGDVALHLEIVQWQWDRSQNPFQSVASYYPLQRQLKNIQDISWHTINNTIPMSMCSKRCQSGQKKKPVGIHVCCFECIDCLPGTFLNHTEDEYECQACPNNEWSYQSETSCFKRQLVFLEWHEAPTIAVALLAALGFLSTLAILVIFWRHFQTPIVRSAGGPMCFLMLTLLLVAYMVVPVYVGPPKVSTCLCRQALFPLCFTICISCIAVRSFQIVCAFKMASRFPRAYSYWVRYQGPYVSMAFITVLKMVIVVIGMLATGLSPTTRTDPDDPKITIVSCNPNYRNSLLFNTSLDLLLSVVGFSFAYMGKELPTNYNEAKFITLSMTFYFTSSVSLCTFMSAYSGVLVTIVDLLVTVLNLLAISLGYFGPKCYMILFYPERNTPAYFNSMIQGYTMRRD
T1 sequence (Q7RTX0 21-852): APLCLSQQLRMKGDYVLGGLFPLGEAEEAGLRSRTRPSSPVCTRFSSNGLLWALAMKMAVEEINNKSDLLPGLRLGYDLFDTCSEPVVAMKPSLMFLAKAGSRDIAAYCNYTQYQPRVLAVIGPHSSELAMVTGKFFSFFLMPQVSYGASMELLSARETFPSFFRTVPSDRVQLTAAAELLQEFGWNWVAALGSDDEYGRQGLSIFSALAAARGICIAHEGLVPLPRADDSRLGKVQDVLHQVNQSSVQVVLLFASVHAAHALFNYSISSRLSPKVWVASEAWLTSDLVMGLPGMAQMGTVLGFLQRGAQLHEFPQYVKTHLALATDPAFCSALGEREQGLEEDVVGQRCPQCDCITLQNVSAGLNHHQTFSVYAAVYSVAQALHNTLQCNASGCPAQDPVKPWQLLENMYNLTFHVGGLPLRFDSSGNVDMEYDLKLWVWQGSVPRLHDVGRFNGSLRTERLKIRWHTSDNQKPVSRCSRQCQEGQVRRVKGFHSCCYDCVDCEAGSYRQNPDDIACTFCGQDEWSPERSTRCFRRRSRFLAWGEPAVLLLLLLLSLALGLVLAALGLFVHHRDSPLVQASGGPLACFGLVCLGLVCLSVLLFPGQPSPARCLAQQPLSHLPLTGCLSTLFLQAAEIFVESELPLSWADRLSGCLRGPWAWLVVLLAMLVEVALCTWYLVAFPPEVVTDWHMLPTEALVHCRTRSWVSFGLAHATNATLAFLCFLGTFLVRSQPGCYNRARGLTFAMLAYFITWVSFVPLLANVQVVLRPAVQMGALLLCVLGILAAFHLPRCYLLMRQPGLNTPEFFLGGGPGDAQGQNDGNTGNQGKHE
As to the kind of experiment: Calcium assay in transfected HEK293T/17 cells, sweet taste receptor. The format is cell-based. The following applies: for EC50: agonist alone, Fig. 2.

Chain of rTAS1R3 (Q923K1 21-858): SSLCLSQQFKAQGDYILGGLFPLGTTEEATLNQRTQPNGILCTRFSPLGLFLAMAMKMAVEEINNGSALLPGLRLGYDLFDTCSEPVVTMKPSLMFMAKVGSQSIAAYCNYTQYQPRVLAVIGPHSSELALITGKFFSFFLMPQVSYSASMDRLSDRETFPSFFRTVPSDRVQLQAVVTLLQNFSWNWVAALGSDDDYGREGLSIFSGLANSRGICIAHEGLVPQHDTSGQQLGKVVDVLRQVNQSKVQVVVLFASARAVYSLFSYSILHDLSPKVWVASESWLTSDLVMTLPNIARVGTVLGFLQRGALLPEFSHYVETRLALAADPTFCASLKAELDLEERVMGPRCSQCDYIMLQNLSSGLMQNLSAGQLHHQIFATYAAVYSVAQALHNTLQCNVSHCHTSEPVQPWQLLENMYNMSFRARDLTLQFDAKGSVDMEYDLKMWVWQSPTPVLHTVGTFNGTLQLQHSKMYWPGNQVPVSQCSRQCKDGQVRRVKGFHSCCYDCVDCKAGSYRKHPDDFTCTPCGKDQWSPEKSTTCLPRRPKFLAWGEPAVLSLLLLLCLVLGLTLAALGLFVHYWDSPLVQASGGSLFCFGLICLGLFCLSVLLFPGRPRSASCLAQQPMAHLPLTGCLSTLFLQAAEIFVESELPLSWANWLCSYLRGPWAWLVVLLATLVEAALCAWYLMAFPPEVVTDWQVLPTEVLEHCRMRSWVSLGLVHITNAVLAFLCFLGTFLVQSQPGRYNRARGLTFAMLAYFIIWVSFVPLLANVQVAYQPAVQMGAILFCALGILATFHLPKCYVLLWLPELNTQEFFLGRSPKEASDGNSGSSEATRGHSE
Protocol for hTAS1R2/hTAS1R3: HEK293T/17 cells (ATCC CRL-11268) were seeded into clear bottom black 96-well plates coated with poly-D-lysine at a density of 32500 cells/well in 100 μL of DMEM containing 4.5 g/L glucose and supplemented with penicillin/streptomycin, 2 mM GlutaMAX and 10 % dialyzed fetal bovine serum. The plates were incubated for 24 h at 37 °C and 7.3 % CO2 in a humidified atmosphere. After incubation, using Fugene® 4 K (0.46 μL/well, Promega, Illkirch, France), the cells were transiently transfected with pcDNA3-hTAS1R1-WT (60 ng/well) or TAS1R1 mutants, pcDNA4-rTAS1R3 (60 ng/well), pcDNA3-Gα15i2 (10 ng/well), and pGP-CMV-GCaMP6s (Addgene #40753; 10 ng/well) as a genetically encoded calcium indicator. Twenty-four hours after transfection, the HEK293T/17 cells were rinsed with 100 μL of C1 buffer (130 mM NaCl, 5 mM KCl, 10 mM HEPES, 2 mM CaCl2, and 5 mM sodium pyruvate, pH 7.4). For each molecule tested, a semi-logarithmic concentration range was created consisting of seven increasing concentrations and a negative control (zero dose) made of buffer C1. […] After 20 s of basal fluorescence calcium measurement, the cells were stimulated via automatic injection of a range of compounds in eight wells, and the signal emission was recorded for an additional 70 s, via a FlexStation 3® fluorometric microplate reader (Molecular Devices, San Jose, CA, USA). […] The emitted fluorescence was measured at a wavelength of 510 nm after excitation at 488 nm. […] For each well, the decrease in the raw fluorescence as the relative fluorescence changed was calculated as ΔF/F0. Replicates were averaged for the wells subjected to the same stimuli, the background signal was subtracted, and the fluorescence changes in mock-transfected cells were subtracted. The half-maximal effective concentration (EC50) and maximal signal amplitude (max ∆F/F0) were calculated via non-linear regression of the sigmoidal function four-parameter logistic equation [f(x) = min + (max − min)/(1 + (x/EC50)^nH)] via SigmaPlot 15.0 software (Grafiti LLC, Palo Alto, CA, USA). […]
Protocol for rTAS1R3: HEK293T/17 cells (ATCC CRL-11268) were seeded into clear bottom black 96-well plates coated with poly-D-lysine at a density of 32500 cells/well in 100 μL of DMEM containing 4.5 g/L glucose and supplemented with penicillin/streptomycin, 2 mM GlutaMAX and 10 % dialyzed fetal bovine serum. The plates were incubated for 24 h at 37 °C and 7.3 % CO2 in a humidified atmosphere. After incubation, using Fugene® 4 K (0.46 μL/well, Promega, Illkirch, France), the cells were transiently transfected with pcDNA3-hTAS1R1-WT (60 ng/well) or TAS1R1 mutants, pcDNA4-rTAS1R3 (60 ng/well), pcDNA3-Gα15i2 (10 ng/well), and pGP-CMV-GCaMP6s (Addgene #40753; 10 ng/well) as a genetically encoded calcium indicator. […] After 20 s of basal fluorescence calcium measurement, the cells were stimulated via automatic injection of a range of compounds in eight wells, and the signal emission was recorded for an additional 70 s, via a FlexStation 3® fluorometric microplate reader (Molecular Devices, San Jose, CA, USA). […] The emitted fluorescence was measured at a wavelength of 510 nm after excitation at 488 nm. […] For each well, the decrease in the raw fluorescence as the relative fluorescence changed was calculated as ΔF/F0. Replicates were averaged for the wells subjected to the same stimuli, the background signal was subtracted, and the fluorescence changes in mock-transfected cells were subtracted. […]

As for `N[C@@H](CCC(=O)N[C@@H](CS)C(=O)NCC(=O)O)C(=O)O` [GSH, γ-L-glutamyl-L-cysteinyl-glycine], the “response of transfected cells” value at rTAS1R3 is on record as “did not respond”. Further, on hTAS1R2/hTAS1R3, the “effect of 10 mM GSH on the response to sucralose” value was “unaffected” and the EC50 stood at 591 ± 344 µM.

For `OC[C@H]1O[C@H](O[C@]2(CCl)O[C@H](CCl)[C@@H](O)[C@@H]2O)[C@H](O)[C@@H](O)[C@H]1Cl` [sucralose, reference compound], on hTAS1R2/hTAS1R3, the EC50 came out at 61 ± 2 µM.
